≈ marks a conversion by molar mass, not a printed value.
Test system: E. Coli and Klebsiella
Assay: In vitro dilution growth/cidal experiments
Type: cell-based
Method: In vitro dilution growth/cidal experiments were conducted on E. Coli and Klebsiella to determine doses of rifaximin and NAC, including lowest doses of rifaximin and lowest doses of NAC.

Row | Compound | effect of NAC on effectiveness of rifaximin in killing E. coli and Klebsiella | MIC (Escherichia coli, with NAC concentration of 0.125 mg/mL, E. Coli and Klebsiella, organism of the value not specified, read-out: minimal inhibitory concentration (MIC) for rifaximin) [µg/mL]
1 | CC(=O)N[C@@H](CS)C(=O)O [NAC, N-acetylcysteine] | improves the effectiveness of rifaximin | 
2 | CO[C@H]1/C=C/O[C@@]2(C)Oc3c(C)c(O)c4c(O)c(c5c(nc6cc(C)ccn65)c4c3C2=O)NC(=O)/C(C)=C\C=C\[C@H](C)[C@H](O)[C@@H](C)[C@@H](O)[C@@H](C)[C@H](OC(C)=O)[C@@H]1C [rifaximin] |  | 4 (≈ 5.09 µM)

From US20250275950A1, “RIFAXIMIN AND N-ACETYL CYSTEINE FORMULATIONS” (Cedars-Sinai Medical Center, priority 2022, published 2025)
